Experimental data from patent US20190202774A1, “BIARYL COMPOUNDS AS ANTIMICROBIAL AND CHEMOTHERAPEUTIC AGENTS” (priority 2015, published 2019).
Converted amounts (≈) assume the structure as drawn. “Also recorded” adds a separate entry of the source. Counter-ions that a name gives are not always drawn. Like-named read-outs stand apart in the source and are kept apart here.

What was measured:
[1] = test system: R. equi strains 701+, 701−, 703, and 5331; assay: MIC/MBC broth microdilution against R. equi; assay type: cell-based, Rhodococcus equi
[2] = test system: 38 MRSA strains; assay: microbe, parasite or virus in culture; settings: Staphylococcus aureus
[3] = test system: MRSA strain USA300; assay: DiSC3(5) membrane permeabilization; assay type: cell-based, Staphylococcus aureus; settings: positive control, 100 nM
Description: Biaryl compounds and their analogues have been reported to be membrane active agents (Isnansetyo and Kamei, 2003 and Kamei et al., 2003). An experiment was performed to verify the membrane permeabilization activity of biaryl compound. C58 using a fluorescent dye, 3,3′-Dipropylthiacarbocyanine iodide (DiSC3(5)). The fluorescence signal from DiSC3(5) is in a quenched state when it interacts with the hydrophobic region of the cell membrane. Upon disruption of the membrane, DiSC3(5) is released and regains its fluorescent activity, which is measured as a fluorescence signal (RFU).

[4] = test system: 38 MRSA strains
[5] = test system: H2122; assay: Lung cancer cell survival, H2122; assay type: cell-based; settings: 72 hour incubation, non-linear curve fit
Description: (§1) The IC50 values generated using a non-linear curve fit with lung cancer cell lines, A549, H460, H2122, and H2073 are listed in Table 10. Experiments were performed using C58, C58-2, C59, C59-2, C119, and acetylated C119 (C119-2). […] Additionally, these concentrations are clinically achievable for treatment of lung cancer and a detailed structure activity relationship experiments needs to be performed to identify promising anticancer candidates.

[6] = test system: A549; assay: Lung cancer cell survival, A549; assay type: cell-based; settings: 72 hour incubation, non-linear curve fit
Description: as §1

[7] = test system: H460; assay: Lung cancer cell survival, H460; assay type: cell-based; settings: 72 hour incubation, non-linear curve fit
Description: as §1

[8] = test system: H2073; assay: Lung cancer cell survival, H2073; assay type: cell-based; settings: 72 hour incubation, non-linear curve fit
Description: as §1

[9] = test system: human lung airway epithelial cells (16HBE); settings: 24-h incubation, non-linear curve fit
Description: Finally, toxicity of biaryl compounds was tested against human lung airway epithelial cells (16HBE), human dermal fibroblasts, and J774.A1 murine macrophages using an ALAMARBLUE® Cell Viability Assay. Biaryl compounds, C58, acetylated C58 (C58-2), C59, C59-2, C59Na, and C59Li were incubated with cells for 24 hours and an ALAMARBLUE® Cell Viability Assay was performed to determine cell viability relative to untreated controls (FIGS. 13A-13C). Cell viability curves were analyzed using non-linear curve fit to yield the inhibitory concentration at median cell survival (LD50) for all cell lines (Table 3).
Next, the toxicity of lead candidates was tested against human lung airway epithelial cells (16HBE) and human dermal fibroblasts (HDF) using an alamarBlue® Cell Viability Assay.

[10] = test system: MRSA strains USA300, 0606, 0608, 0634, 0641, and 0646; assay: MIC/MBC against six MRSA strains (variants of C58/C59, pH, DMSO); assay type: cell-based, Staphylococcus aureus
Description: Six MRSA strains, USA300, 0606, 0608, 0634, 0641, and 0646 were chosen based on their activity against biaryl compounds and vancomycin to determine structure-activity relationship of biaryl compounds. The effect of phenolic group on the activity of biaryl compounds was tested by modifying C59. First, the phenolic group was protected by acetylation to yield an acetylated C59 (C59-2) (FIG. 7B). Additional variants of C59, in the form of sodium and lithium salts were synthesized by incubation with sodium hydroxide and lithium hydroxide (FIGS. 7C and 7D). Antimicrobial activity of these deprotonated, water-soluble sodium (C59Na) and lithium (C59Li) salts, and acetylated derivative of C59 was tested against 6 MRSA strains and compared to the parent compound, C59 (FIGS. 8A-8D). Results from this comparative experiment indicate the contribution of phenolic group/phenoxide ion to the antimicrobial activity.
Further investigation into activity of these compounds under acidic pH conditions also points towards the role of phenolic group. An effective antimicrobial should be active under a wide range of pH conditions, including the physiological pH of 7.4. Localized pH in an infection is often lower than the physiological pH, and may be as low as 5.5 (Radovic-Moreno et al., 2012). Additionally, pH varies among organs (Radovic-Moreno et al., 2012). For example, pH in the bladder or on the skin is found to be between 4.5 and 8.0, or 4.0 and 5.5, respectively (Radovic-Moreno et al., 2012). […] The activity of all biaryl compounds is enhanced by at least four- to eight-fold with reduction in pH from 7.4 to 5.5.
Water soluble sodium and lithium salts of C59 (C59Na and C59Li) and their antimicrobial activity against six MRSA strains are reported above. A sodium salt of C58 (C58Na) was prepared and evaluated efficacy of this compound against these six MRSA strains. […] The poor activity of C58Na may be a result of poor stability of C58Na compared with C59Na and C59Li.

[11] = test system: seven S. pneumoniae strains; assay: MIC/MBC against panel of S. pneumoniae strains; assay type: cell-based; settings: Streptococcus pneumoniae
Description: The activity of compounds against Gram-positive pathogens, S. pyogenes and S. pneumoniae, identified through the preliminary screen (FIG. 15) was evaluated against a panel of these pathogens.

[12] = test system: MRSA strain USA300; assay: Kill kinetics with planktonic log-phase MRSA; assay type: cell-based, Staphylococcus aureus; settings: log-phase USA300, 24 hours
[13] = test system: E. faecalis strains 49532 and 51575; assay: MIC/MBC broth microdilution against E. faecalis; assay type: cell-based, Enterococcus faecalis; settings: Enterococcus faecalis
[14] = test system: MRSA strains USA300 and SALL06; assay: Kill kinetics with stationary-phase MRSA; assay type: cell-based, Staphylococcus aureus
[15] = test system: 21 S. epidermidis strains; assay: MIC90/MBC90 broth microdilution against 21 S. epidermidis strains; assay type: cell-based, Staphylococcus epidermidis; settings: Staphylococcus epidermidis
From the text: We are currently in the process of evaluating the MICs and MBCs for 5-32.

[16] = test system: MRSA strains SAD05 and 0632 in a biofilm; assay: MBEC High-throughput biofilm assay; assay type: cell-based, Staphylococcus aureus; settings: 6 hours
[17] = test system: erythrocytes from sheep blood; assay: Hemolytic activity
Description: Toxicity of biaryl compounds was tested against erythrocytes as well as eukaryotic epithelial, dermal, and macrophage cell lines in vitro.
Toxicity of lead antimicrobial candidates was tested against erythrocytes, as well as eukaryotic epithelial and dermal cell lines in vitro.

[18] = read-out: MBC90, 38 MRSA strains, MH broth

CO[C@H]1/C=C/O[C@@]2(C)Oc3c(C)c(O)c4c(O)c(c(/C=N/N5CCN(C)CC5)c(O)c4c3C2=O)NC(=O)/C(C)=C\C=C\[C@H](C)[C@H](O)[C@@H](C)[C@@H](O)[C@@H](C)[C@H](OC(C)=O)[C@@H]1C [Rifampicin, reference compound]
MBC ([1]; Rhodococcus (subgen. Prescottella) equi, strain 701+, read-out: MBC): > 192 µg/mL
MIC ([1]; Rhodococcus (subgen. Prescottella) equi, strain 701+, read-out: MIC): 0.5 µg/mL (≈ 0.608 µM)
MBC ([1]; Rhodococcus (subgen. Prescottella) equi, strain 701−, read-out: MBC): > 192 µg/mL
MIC ([1]; Rhodococcus (subgen. Prescottella) equi, strain 703): 0.125 µg/mL (≈ 0.152 µM)
MBC ([1]; Rhodococcus (subgen. Prescottella) equi, strain 703, read-out: MBC): 80 µg/mL (≈ 97.2 µM)
MIC ([1]; Rhodococcus (subgen. Prescottella) equi, strain 5331): 0.125 µg/mL (≈ 0.152 µM)
MBC ([1]; Rhodococcus (subgen. Prescottella) equi, strain 5331, read-out: MBC): 32 µg/mL (≈ 38.9 µM)
MIC ([1]; strain 701−): 0.5 µg/mL (≈ 0.608 µM)

CC(=O)NC[C@H]1CN(c2ccc(N3CCOCC3)c(F)c2)C(=O)O1 [Linezolid]
MIC90 ([2]; 38 MRSA strains, MH broth): 4 µg/mL (≈ 11.9 µM)
MBC [2, 18]: > 32 µg/mL

O=C(Nc1ccc(Cl)c(Cl)c1)c1cc(Cl)cc(Cl)c1O [3,3′,4′,5-tetrachlorosalicylanilide, reference compound]
membrane disruption (DiSC3(5) fluorescence) [3]: positive membrane disruption

CCCCCCCCCC(=O)N[C@@H](Cc1c[nH]c2ccccc12)C(=O)N[C@H](CC(N)=O)C(=O)N[C@@H](CC(=O)O)C(=O)N[C@@H]1C(=O)NCC(=O)N[C@@H](CCCN)C(=O)N[C@@H](CC(=O)O)C(=O)N[C@H](C)C(=O)N[C@@H](CC(=O)O)C(=O)NCC(=O)N[C@H](CO)C(=O)N[C@@H]([C@H](C)CC(=O)O)C(=O)N[C@@H](CC(=O)c2ccccc2N)C(=O)O[C@@H]1C [Daptomycin hydrochloride]
MBC90 ([4]; MH broth): >32 µg/mL
MBC90 ([4]; cation adjusted MH broth): 2 µg/mL

Nc1c(-c2c(O)ccc3ccccc23)cc(Cl)c(Cl)c1Cl [C119]
H2122 LD50 [5]: 58 µM
A549 LD50 [6]: 52 µM
H460 LD50 [7]: 37 µM
H2073 LD50 [8]: 33 µM

CC(=O)Oc1c(Br)cc(Br)cc1-c1cc(Br)cc(Br)c1OC(C)=O [C58-2]
H2122 LD50 [5]: 87 µM
A549 LD50 [6]: 74 µM
H460 LD50 [7]: 51 µM
H2073 LD50 [8]: 36 µM

[Li+].[Li+].[O-]c1c(Cl)cc(Cl)cc1-c1cc(Cl)cc(Cl)c1[O-] [C59Li]
16HBE LD50 [9]: 24.4 µg/mL
activity in the absence of DMSO versus with 2.5% DMSO [10]: at least comparable activity
antimicrobial activity (MIC and MBC) compared to the parent compound [10]: enhanced activity; also recorded: superior activity over C59

CC(=O)Oc1c(Cl)cc(Cl)cc1-c1cc(Cl)cc(Cl)c1OC(C)=O [C59-2]
H2122 LD50 [5]: 99 µM
A549 LD50 [6]: 74 µM
antimicrobial activity (MIC and MBC) compared to the parent compound [10]: Reduction of activity
H460 LD50 [7]: 73 µM
MBC ([1]; strain 701+): 16 µg/mL (≈ 39.2 µM)
MIC ([1]; strain 701+): 4 µg/mL (≈ 9.8 µM)
MBC ([1]; strain 701−): 16 µg/mL (≈ 39.2 µM)
MIC ([1]; strain 701−): 4 µg/mL (≈ 9.8 µM)
MBC ([1]; strain 703): 16 µg/mL (≈ 39.2 µM)
MIC ([1]; strain 703): 2 µg/mL (≈ 4.9 µM)
MBC ([1]; strain 5331): 16 µg/mL (≈ 39.2 µM)
MIC ([1]; strain 5331): 4 µg/mL (≈ 9.8 µM)
H2073 LD50 [8]: 45 µM

CCC[C@@H]1C[C@@H](C(=O)N[C@@H]([C@H]2O[C@H](SC)[C@H](O)[C@@H](O)[C@H]2O)[C@H](C)Cl)N(C)C1 [Clindamycin hydrochloride]
MBC90 ([4]; MH broth, hydrochloride): >32 µg/mL
MIC90 ([4]; MH broth, hydrochloride): >32 µg/mL
MIC90 ([2]; 38 MRSA strains, MH broth): ≥ 32 µg/mL
MBC [2, 18]: ≥ 32 µg/mL

CN[C@H](CC(C)C)C(=O)N[C@H]1C(=O)N[C@@H](CC(N)=O)C(=O)N[C@H]2C(=O)N[C@H]3C(=O)N[C@H](C(=O)N[C@H](C(=O)O)c4cc(O)cc(O)c4-c4cc3ccc4O)[C@H](O)c3ccc(c(Cl)c3)Oc3cc2cc(c3O[C@@H]2O[C@H](CO)[C@@H](O)[C@H](O)[C@H]2O[C@H]2C[C@](C)(N)[C@H](O)[C@H](C)O2)Oc2ccc(cc2Cl)[C@H]1O [Vancomycin hydrochloride, reference compound]
MBC ([11]; read-out: MBCs): 0.25 to 0.5 µg/mL
MIC ([11]; read-out: MICs): 0.25 to 0.5 µg/mL
dose response of bacterial eradication [12]: absence of dose response
change of activity with reduction in pH from 7.4 to 5.5 ([10]; pH 7.4, 6.5, 5.5): does not exhibit any improvement
MBC ([13]; strain 49532): > 512 µg/mL
MIC ([13]; strain 49532): 1 µg/mL
MBC ([13]; strain 51575): > 192 µg/mL
MIC ([13]; strain 51575): 192 µg/mL
bacterial counts versus untreated controls ([14]; at 24 hours, 0.5-2.0): no difference
eradication of stationary-phase bacteria ([14]; stationary-phase USA300 and SALL06, up to 24 hours): fails to eradicate the bacterial burden completely
MIC90 [2]: 2 µg/mL
MBC ([2]; read-out: MBC90): 16 µg/mL
MIC90 [15]: 4 µg/mL
MBC ([15]; read-out: MBC90): 8 µg/mL
activity against biofilm mode bacteria [16]: Lack of activity

[Na+].[Na+].[O-]c1c(Br)cc(Br)cc1-c1cc(Br)cc(Br)c1[O-] [C58Na]
16HBE LD50 [9]: 92.3 µg/mL
activity in the absence of DMSO versus with 2.5% DMSO [10]: at least comparable activity
antimicrobial activity (MIC and MBC) compared to the parent compound [10]: poor activity
onset of hemolysis [17]: 32 to 48 µg/mL
